# In patent US8017606B2, “Quinoline derivatives as antibacterial agents” (Janssen Pharmaceutica NV, priority 2005, dated 2011):
# Tests used:
# Assay in all cases: Microtitre plate assay, IC90 determination
# Assay type in all cases: cell-based
# [1] = tested on: Listeria monocytogenes (ATCC49594); conditions: 90% inhibitory concentration for bacterial growth, 37° C., resazurin fluorescence, read-out: IC90 (μg/ml) LMO 49594
# Experimental: (§1) The bacteria used in this study were grown overnight in flasks containing 100 ml Mueller-Hinton Broth (Becton Dickinson—cat. no. 275730) in sterile de-ionized water, with shaking, at 37° C. Stocks (0.5 ml/tube) were stored at −70° C. until use. Bacteria titrations were performed in microtiter plates and colony forming units (CFUs) were determined. In general, an inoculum level of approximately 100 CFUs was used for susceptibility testing.
# (§2) Anti Bacterial Susceptibility Testing: IC90 Determination
# (§3) Flat-bottom, sterile 96-well plastic microtiter plates were filled with 180 μl of sterile deionized water, supplemented with 0.25% BSA. Subsequently, stock solutions (7.8×final test concentration) of compounds were added in 45 μl volumes in column 2 Serial five-fold dilutions (45 μl in 180 μl) were made directly in the microtiter plates from column 2 to reach column 11. Untreated control samples with (column 1) and without (column 12) inoculum were included in each microtiter plate. Depending on the bacteria type, approximately 10 to 60 CFU per well of bacteria inoculum (100 TCID50), in a volume of 100 μl in 2.8× Mueller-Hinton broth medium, was added to the rows A to H, except column 12. The same volume of broth medium without inoculum was added to column 12 in row A to H. The cultures were incubated at 37° C. for 24 hours under a normal atmosphere (incubator with open air valve and continuous ventilation). At the end of incubation, one day after inoculation, the bacterial growth was quantitated fluorometrically. Therefore resazurin (0.6 mg/ml) was added in a volume of 20 μl to all wells […], and the plates were re-incubated overnight. A change in colour from blue to pink indicated the growth of bacteria.
# (§4) The fluorescence was read in a computer-controlled fluorometer (Cytofluor Biosearch) at an excitation wavelength of 530 nm and an emission wavelength of 590 nm. The % growth inhibition achieved by the compounds was calculated according to standard methods. The IC90 (expressed in μg/ml) was defined as the 90% inhibitory concentration for bacterial growth.
# [2] = tested on: Bacillus subtilis (ATCC43639); conditions: 90% inhibitory concentration for bacterial growth, 37° C., resazurin fluorescence, read-out: IC90 (μg/ml) BSU 43639
# Experimental: as §1, §2, §3, §4
# [3] = tested on: Streptococcus pyogens (ATCC8668); conditions: 90% inhibitory concentration for bacterial growth, 37° C., resazurin fluorescence, read-out: IC90 (μg/ml) SPY 8668
# Experimental: as §1, §2, §3, §4
# [4] = tested on: Staphylococcus aureus (ATCC25923); conditions: 90% inhibitory concentration for bacterial growth, 37° C., resazurin fluorescence, read-out: IC90 (μg/ml) STA 25923
# Experimental: as §1, §2, §3, §4
# [5] = tested on: Streptococcus mutans (ATCC33402); conditions: 90% inhibitory concentration for bacterial growth, 37° C., resazurin fluorescence, read-out: IC90 (μg/ml) SMU 33402
# Experimental: as §1, §2, §3, §4
# [6] = tested on: methicilline resistant Staphylococcus aureus (MRSA) (a clinical isolate from the University of Antwerp); conditions: 90% inhibitory concentration for bacterial growth, 37° C., resazurin fluorescence, read-out: IC90 (μg/ml) STA RMETHIC
# Experimental: as §1, §2, §3, §4
# [7] = tested on: Enterococcus faecalis (ATCC14506); conditions: 90% inhibitory concentration for bacterial growth, 37° C., resazurin fluorescence, read-out: IC90 (μg/ml) EFA 14506
# Experimental: as §1, §2, §3, §4
# [8] = tested on: Enterococcus faecalis (ATCC29212); conditions: 90% inhibitory concentration for bacterial growth, 37° C., resazurin fluorescence, read-out: IC90 (μg/ml) EFA 29212
# Experimental: as §1, §2, §3, §4
# [9] = tested on: Streptococcus pneumoniae (ATCC6305); conditions: 90% inhibitory concentration for bacterial growth, 37° C., resazurin fluorescence, read-out: IC90 (μg/ml) SPN 6305
# Experimental: as §1, §2, §3, §4
# [10] = tested on: Pseudomonas aeruginosa (ATCC27853); conditions: 90% inhibitory concentration for bacterial growth, 37° C., resazurin fluorescence, read-out: IC90 (μg/ml) PAE 27853
# Experimental: as §1, §2, §3, §4
# [11] = tested on: Staphylococcus aureus (ATCC29213); conditions: 90% inhibitory concentration for bacterial growth, 37° C., resazurin fluorescence, read-out: IC90 (μg/ml) STA 29213
# Experimental: as §1, §2, §3, §4
IC90 [1] [µg/mL],IC90 [2] [µg/mL],IC90 [3] [µg/mL],IC90 [4] [µg/mL],IC90 [5] [µg/mL],IC90 [7] [µg/mL],IC90 [8] [µg/mL],IC90 [9] [µg/mL],IC90 [10] [µg/mL],IC90 [11] [µg/mL],Compound,IC90 [6] [µg/mL]
11.3,11.3,9,11.3,9,11.3,11.3,11.3,11.3,11.3,COc1nc2cccc(C(O)(CCN(C)C)c3cc(F)cc(F)c3)c2cc1-c1ccccc1 (centres unmarked) [Compound 1],11.3
10.4,10.4,10.4,10.4,–,–,10.4,10.4,10.4,10.4,COc1nc2cccc(C(O)(CCN(C)C)c3ccccc3)c2cc1-c1ccccc1 (centres unmarked) [Compound 4],10.4
10.1,10.1,10.1,10.1,–,–,10.1,10.1,10.1,10.1,COc1nc2cccc(C(O)(CCN(C)C)c3ccco3)c2cc1-c1ccccc1 (centres unmarked) [Compound 5],9
7.6,37.9,12,7.6,–,–,10.7,12,10.7,9.5,COc1nc2ccc(C(O)(CCN(C)C)c3cc(F)cc(F)c3)cc2cc1Cc1ccc(C)cc1 (centres unmarked) [Compound 7],37.9
11.3,11.3,9,11.3,–,–,11.3,11.3,11.3,11.3,COc1cc(-c2ccccc2)c2cc(C(O)(CCN(C)C)c3cc(F)cc(F)c3)ccc2n1 (centres unmarked) [Compound 11],11.3
12.1,12.1,12.1,12.1,–,–,12.1,10.8,12.1,12.1,COc1nc2c(C(O)(CCN(C)C)c3ccco3)cc(Br)cc2cc1-c1ccccc1 (centres unmarked) [Compound 13],12.1
10.4,10.4,10.4,10.4,–,–,10.4,10.4,10.4,10.4,COc1cc(-c2ccccc2)c2cc(C(O)(CCN(C)C)c3ccccc3)ccc2n1 (centres unmarked) [Compound 14],10.4
10.1,10.1,10.1,10.1,–,–,10.1,10.1,10.1,10.1,COc1cc(-c2ccccc2)c2cc(C(O)(CCN(C)C)c3ccco3)ccc2n1 (centres unmarked) [Compound 15],10.1
10.4,10.4,10.4,10.4,–,–,10.4,10.4,10.4,10.4,COc1cc(-c2ccccc2)c2cc(C(O)(CCN(C)C)c3ccccn3)ccc2n1 (centres unmarked) [Compound 16],10.4
14.9,11.8,11.8,13.2,11.8,11.8,14.9,14.9,14.9,11.8,CN(C)CCC(O)(c1cccc2ccccc12)c1cc(Br)cc2cc(Cc3ccccc3)c(-n3ccnc3)nc12 (centres unmarked) [Compound 24],14.9
3.6,14.5,2.9,7.3,2.9,14.5,3.6,3.6,2.9,16.3,CN(C)CCC(O)(c1cccc2ccccc12)c1cc(Br)cc2cc(Cc3ccccc3)c(N3CCN(c4n[nH]c5ccccc45)CC3)nc12 (centres unmarked) [Compound 26],18.2
14.5,11.5,11.5,14.5,11.5,46,14.5,14.5,14.5,14.5,CN(C)CCC(O)(c1cccc2ccccc12)c1cc(Br)cc2cc(-c3ccccc3)c(-n3cncn3)nc12 (centres unmarked) [Compound 33],14.5
39.4,12.5,12.5,9.9,–,–,12.5,12.5,12.5,39.4,CN(C)CCC(O)(c1cc(F)cc(F)c1)c1ccc2nc(-c3cccnc3)cc(-c3ccccc3)c2c1 (centres unmarked) [Compound 42],49.6
–,–,11.5,–,–,–,11.5,11.5,11.5,11.5,CN(C)CCC(O)(c1ccccc1)c1ccc2nc(-c3cccnc3)cc(-c3ccccc3)c2c1 (centres unmarked) [Compound 43],–
11.3,11.3,11.3,11.3,–,–,11.3,11.3,11.3,11.3,CN(C)CCC(O)(c1ccc2nc(-c3cccnc3)cc(-c3ccccc3)c2c1)c1ccco1 (centres unmarked) [Compound 44],11.3
11.6,9.2,9.2,10.3,9.2,10.3,11.6,11.6,11.6,9.2,CN(C)CCC(O)(c1cc(F)cc(F)c1)c1cccc2nc(N(C)C)c(-c3ccccc3)cc12 (centres unmarked) [Compound 45],46.2
10.7,10.7,10.7,10.7,–,–,10.7,10.7,10.7,10.7,CN(C)CCC(O)(c1ccccc1)c1ccc2nc(N(C)C)cc(-c3ccccc3)c2c1 (centres unmarked) [Compound 47],10.7
–,–,17,–,17,–,17,17,17,17,CC(=O)c1ccc(N2CCN(c3nc4c(C(O)(CCN(C)C)c5ccccc5)cc(Br)cc4cc3Cc3ccccc3)CC2)cc1 (centres unmarked) [Compound 54],–
13.5,13.5,13.5,13.5,13.5,–,13.5,13.5,13.5,13.5,CN(C)CCC(O)(c1ccccc1)c1cc(-c2cccnc2)cc2cc(-c3ccccc3)c(-c3cccnc3)nc12 (centres unmarked) [Compound 65],13.5
51,51,51,51,–,–,51,22.8,51,51,COc1nc2c(C(O)(CCN(C)C)c3cccs3)cc(-c3cccnc3)cc2cc1Cc1ccccc1 (centres unmarked) [Compound 67],51
39,12.3,9.8,12.3,9.8,–,49.1,12.3,9.8,12.3,COc1nc2ccccc2c(CC(O)(CCN(C)C)c2cccc3ccccc23)c1Cc1ccccc1 (centres unmarked) [Compound 70],12.3
